Source: US20160304573A1, “FIBROMODULIN PEPTIDE” (The Regents of the University of California, priority 2010, published 2016)
Values belong to the molecule of their own block, whether it stands above or below them.

Assays:
[1] = target: T1, TGF-β3 (Homo sapiens, UniProt P10600); assay: TGF-β3 binding to biotinylated FMOD/FMOD peptides on avidin resin; non-bound TGF-β read by Mv1Lu growth inhibition (MTT); conditions: ratios 1:1, 10:1, 100:1, 1000:1 to TGF-β; FIG. 15
T1 sequence (P10600 301-412 limits assumed): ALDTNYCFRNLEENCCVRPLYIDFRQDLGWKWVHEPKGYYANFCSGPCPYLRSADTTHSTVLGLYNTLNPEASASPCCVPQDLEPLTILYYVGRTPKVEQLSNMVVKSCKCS
Protocol: (§1) FMOD (whole protein) (SEQ ID NO:1), FMOD peptides and control protein BSA were biotinylated. While, the biotinylated proteins and peptides were bound to commercial available Piece Monomeric Avidin UltraLink Resin (Piece). The amounts of each test peptides/proteins are 1:1, 10:1, 100:1 and 1000:1 to TGF-βs, respectively. After washing out the non-bound residues, appropriate amount TGF-βs (based on the primary test assay) were added to the resin at 4° C. After overnight binding, non-bound TGF-βs were collected, followed by filter sterilization. Then, the TGF-βs residue were diluted 100 times in DEME-0.5% FBS to ensure the concentration was located in the linear region of TGF-βs on Mv1Lu proliferate inhibition.
(§2) Diluted TGF-βs was added to overnight serum-starved Mv1Lu, and fresh TGF-βs media were added for another 24 hour before MTT assay. Samples with no TGF-βs added were employed as controls.

[2] = target: T2, TGF-β1 (Homo sapiens, UniProt P01137); assay: TGF-β1 binding to biotinylated FMOD/FMOD peptides on avidin resin; non-bound TGF-β read by Mv1Lu growth inhibition (MTT); conditions: ratios 1:1, 10:1, 100:1, 1000:1 to TGF-β; overnight 4° C.; FIG. 13
Protocol: as §1, §2

[3] = target: T3, TGF-β2 (Homo sapiens, UniProt P61812); assay: TGF-β2 binding to biotinylated FMOD/FMOD peptides on avidin resin; non-bound TGF-β read by Mv1Lu growth inhibition (MTT); conditions: ratios 1:1, 10:1, 100:1, 1000:1 to TGF-β; FIG. 14
T3 sequence (P61812 303-414 limits assumed): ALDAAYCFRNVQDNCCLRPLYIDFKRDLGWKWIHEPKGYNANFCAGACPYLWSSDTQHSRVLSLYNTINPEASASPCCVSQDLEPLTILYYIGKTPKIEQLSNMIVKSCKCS
Protocol: as §1, §2

[4] = tested on: α-smooth muscle actin (α-SMA) expression; assay: α-SMA expression staining; assay type: cell-based; conditions: mono-treatment (200 nM FMOD or 100 pM TGF-β1); FIGS. 25B, 25C
Protocol: Exemplary tests on effects of FMOD and TGF-β or FMOD peptides and TGF-β on α-SMA expression were performed and shown in FIGS. 25A-25D. Expression levels of α-SMA, which is a marker for the transition of fibroblasts to myofibroblasts, were measured and presented in staining in these figures.

[5] = tested on: connective tissue growth factor (CTGF) expression; assay: CTGF expression and cell aggregation in Rat-2 cells, confocal staining; assay type: cell-based
Protocol: Results of exemplary tests on each of FMOD and FMOD-P, alone or in combination with TGF-β on CTGF expression are shown in FIGS. 28A-28D. In these tests, 4,000 cells/well passage 18 Rat-2 cells were seeded in 8-well chamber slices in DMEM medium with 10% FBS. After 6 h adhesion, fresh DMEM medium with 0.5% FBS was employed for overnight serum starvation and then treatment media added. Treatment media were changed after 24 h. Cells were fixed and staining at 48 h. Photos were captured at 630× magnifications using a confocal microscope. In these figures, the cells were stained for CTGF (connective tissue growth factor, a factor involved in cell proliferation, migration and matrix production) or DAPI (4′,6-diamidino-2-phenylindole a fluorescent stain that binds strongly to DNA-used for nuclear staining). Merged images showing both CTGF and DAPI staining are also shown.

[6] = tested on: Rat-2 cells; assay: H&E morphology of Rat-2 cells; assay type: cell-based
Protocol: Exemplary tests were performed to better delineate cell morphology.

[7] = tested on: Rat-2 cells; assay: Rat-2 cell migration by scratching method; assay type: cell-based; conditions: alone (200 nM FMOD or 100 pM TGF-β), 24 hours
Protocol: 1×10^6 cell/well Rat-2 cells were seeded in 6-well plated with 3 ml DMEM-10% FBS. After 6 hours for adhesion, fresh DMEM-0.5% FBS medium was changed for serum-starving overnight. After pre-warmed DMEM rinsing, four wounds (each 1 mm wide; two horizontal and two vertical) were scratched employing a 1-ml tip for each treatment group. Cells were rinsed by DMEM for three times, followed by incubation with treatment medium [DMEM-0.5 FBS containing 100 pM (2.5 ng/ml) TGF-β1 (SEQ ID NO:64) or -β3 (SEQ ID NO:66) w/o 200 nM (11.2 μg/ml) FMOD (SEQ ID NO:1)] for 24 hours. Photos were captured at both 0-h and 24-h after the scratching. The unclosed distance was measured and quantified as an average gap (A) and migration index (B). Similar results were reproduced in four independent experiments. The scale bar in (A) equal to 100 The asterisks in (B) present P<0.05.
(§3) Similar to FMOD (whole protein), the effect of FMOD peptides and/or TGF-β on cell migration was also evaluated by scratching method (FIGS. 18C and 25D). At the same time, cell migration/invasion in Matrigel was documented at 100× magnificent after 24 hour treatment and quantitated using DAPI nuclear staining (100 rather than 200× magnification was used because one group's invasion is quite low) (see the results in FIG. 20A and DAPI pictures in FIG. 20B). Passage 18 Rat-2 cells (20,000 cells/well) were used for the test under the treatment of 100 pM TGF-β1 (SEQ ID NO:64)/133 (SEQ ID NO:66) with/without 200 nM FMOD-F07-40C in DMEM-0.5% FBS.

[8] = tested on: Rat-2 cells; assay: Rat-2 cell migration/invasion in Matrigel, DAPI nuclear staining; assay type: cell-based; conditions: alone (200 nM FMOD or peptide, or 100 pM TGF-β), 24 hour treatment
Protocol: Cell migration/invasion in Matrigel was documented at 200× magnificent after 24 hour treatment and quantitated using DAPI nuclear staining (results shown in FIG. 19A and repeat results in FIGS. 26B and 26C; DAPI pictures are shown in FIG. 19D).
as §3
Passage 18 Rat-2 cells (20,000 cells/well) were used for the test under the treatment of 100 pM TGF-β1/β3 with/without 200 nM FMOD-F06-40C in DMEM-0.5% FBS (FIG. 20C).

[9] = target: T4, Bovine serum albumin (BSA) (bovine, UniProt P02769 25-607); assay: biotinylated protein on avidin resin, unbound TGF-β read by Mv1Lu growth inhibition (MTT)
T4 construct: also called control BSA; control protein BSA
Protocol: as §1, §2

[10] = target: T2, TGF-β1; assay: ELISA analysis of binding with TGF-β1; conditions: BSA as negative control; FIG. 3
From the text: Bovine serum albumin (BSA) was used as negative control.
SUMO-CAT from the recombinant bacteria harboring control plasmid pET_SUMO/CAT was used as negative control. To the knowledge of inventors, the TGF-binding sites within FMOD have not been reported.

T2 sequence (P01137 279-390 limits assumed): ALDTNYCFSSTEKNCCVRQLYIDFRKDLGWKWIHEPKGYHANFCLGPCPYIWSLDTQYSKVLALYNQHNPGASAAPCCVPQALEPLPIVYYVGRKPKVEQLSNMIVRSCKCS
T4 sequence (P02769 25-607 limits assumed): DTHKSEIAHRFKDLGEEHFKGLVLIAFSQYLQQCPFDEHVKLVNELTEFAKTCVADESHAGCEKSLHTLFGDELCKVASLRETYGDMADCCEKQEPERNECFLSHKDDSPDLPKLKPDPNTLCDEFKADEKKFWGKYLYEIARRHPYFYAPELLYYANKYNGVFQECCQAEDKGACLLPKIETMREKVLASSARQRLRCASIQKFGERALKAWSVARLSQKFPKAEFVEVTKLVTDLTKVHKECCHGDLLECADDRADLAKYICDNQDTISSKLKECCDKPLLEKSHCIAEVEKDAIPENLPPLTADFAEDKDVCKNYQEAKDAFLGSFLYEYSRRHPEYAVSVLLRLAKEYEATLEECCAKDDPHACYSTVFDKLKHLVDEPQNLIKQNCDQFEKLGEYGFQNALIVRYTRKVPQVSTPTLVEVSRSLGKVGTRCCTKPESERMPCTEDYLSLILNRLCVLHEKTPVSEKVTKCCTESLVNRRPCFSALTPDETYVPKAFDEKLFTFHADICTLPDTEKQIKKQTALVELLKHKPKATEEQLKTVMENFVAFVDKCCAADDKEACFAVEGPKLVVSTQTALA

Molecule: TGF-β1: TGF-β isoform, SEQ ID NO:64
- α-SMA staining [4]: moderate α-SMA staining
- CTGF expression ([5]; mono-treatment (200 nM FMOD or 100 pM TGF-β1), 48 h, FIGS. 21B, 21C): moderate CTGF expression
- CTGF expression (green fluorescence) ([5]; mono-treatment, another set of similar studies, FIG. 24): increases expression of CTGF
- nodule-like cell aggregations/condensations, number ([6]; 100 pM TGF-β1 alone, 8-well chamber slides): < one
- cell aggregation/density (H&E) ([6]; mono-treatment (200 nM FMOD or 100 pM TGF-β1), relative to controls): slightly increased the Rat-2 cell density

B1: TGF-β3 (ligand)
chain: NCCVRPLYIDFRQDLGWKWVHEPKGYYANFCSGPCPYLRSADTTHSTVLGLYNTLNPEASASPCCVPQDLEPLTILYYVGRTPKVEQLSNMVVKSCKCS
- cell migration, scratch [7]: inhibited migration
- cell migration/invasion in Matrigel [8]: inhibited migration
- binding result [9]: no binding

Now from value to molecule, other results behind:

- TGF-β2 binding [3]: minimal TGF-β2 binding
Molecule: Bovine serum albumin [BSA, reference compound]
- TGF-β3 binding [1]: did not bind to TGF-β3 even at high ratios
- TGF-β1 binding [2]: minimal TGF-β1 binding except at very high ratios

- binding with TGF-β1 in ELISA assay [10]: able to bind with TGF-β1
B2: native extract bovine FMOD: native extract bovine FMOD, comparator in ELISA (protein)
chain: QYEEDSHWWFQFLRNQQSTYDDPYDPYPYEPYEPYPYGGEEGPAYAYGSPPQPEPRDCPQECDCPPNFPTAMYCDNRNLKYLPFVPSRMKYVYFQNNQISSIQEGVFDNATGLLWIALHGNQITSDKVGKKVFSKLRHLERLYLDHNNLTRIPSPLPRSLRELHLDHNQISRVPNNALEGLENLTALYLHHNEIQEVGSSMKGLRSLILLDLSYNHLRKVPDGLPSALEQLYLEHNNVFSVPDSYFRGSPKLLYVRLSHNSLTNNGLASNTFNSSSLLELDLSYNQLQKIPPVSTNLENLYLQGNRINEFSISSFCTVVDVMNFSKLQVLRLDGNEIKRSAMPADAPLCLRLASLIEI
